Test results reported in ChEMBL document CHEMBL1949653, “Novel heterocyclic DPP-4 inhibitors for the treatment of type 2 diabetes” (Bioorg Med Chem Lett, 2012).

Assays:
[1] = target: T1, Muscarinic acetylcholine receptor M1 (Homo sapiens, UniProt P11229); assay: Inhibition of M1 receptor
T1 sequence (P11229 whole entry): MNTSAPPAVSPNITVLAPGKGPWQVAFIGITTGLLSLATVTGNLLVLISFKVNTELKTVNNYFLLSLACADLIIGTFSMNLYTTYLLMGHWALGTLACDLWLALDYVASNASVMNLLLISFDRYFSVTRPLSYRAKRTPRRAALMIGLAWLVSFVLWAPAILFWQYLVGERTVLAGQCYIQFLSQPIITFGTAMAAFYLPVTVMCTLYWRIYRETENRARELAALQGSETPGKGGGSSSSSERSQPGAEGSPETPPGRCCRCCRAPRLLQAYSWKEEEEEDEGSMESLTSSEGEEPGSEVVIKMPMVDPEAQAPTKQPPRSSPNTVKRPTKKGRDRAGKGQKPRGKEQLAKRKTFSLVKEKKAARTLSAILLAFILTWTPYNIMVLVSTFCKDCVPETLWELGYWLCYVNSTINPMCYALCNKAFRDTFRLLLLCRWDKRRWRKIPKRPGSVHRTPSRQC

Rattus norvegicus [2] = assay: Ex-vivo inhibition of DPP4 in Wistar rat at 3 mg/kg, po up to 8 hrs post-administration; format: functional
[3] = Intrinsic clearance in rat liver microsome; format: ADME; settings: liver microsomes, read-out: CLH
Cytochrome P450 3A4 = Cytochrome P450 3A4 (Homo sapiens, UniProt P08684); assay: Inhibition of CYP3A4; format: ADME
Sequence of Cytochrome P450 3A4 (P08684 whole entry): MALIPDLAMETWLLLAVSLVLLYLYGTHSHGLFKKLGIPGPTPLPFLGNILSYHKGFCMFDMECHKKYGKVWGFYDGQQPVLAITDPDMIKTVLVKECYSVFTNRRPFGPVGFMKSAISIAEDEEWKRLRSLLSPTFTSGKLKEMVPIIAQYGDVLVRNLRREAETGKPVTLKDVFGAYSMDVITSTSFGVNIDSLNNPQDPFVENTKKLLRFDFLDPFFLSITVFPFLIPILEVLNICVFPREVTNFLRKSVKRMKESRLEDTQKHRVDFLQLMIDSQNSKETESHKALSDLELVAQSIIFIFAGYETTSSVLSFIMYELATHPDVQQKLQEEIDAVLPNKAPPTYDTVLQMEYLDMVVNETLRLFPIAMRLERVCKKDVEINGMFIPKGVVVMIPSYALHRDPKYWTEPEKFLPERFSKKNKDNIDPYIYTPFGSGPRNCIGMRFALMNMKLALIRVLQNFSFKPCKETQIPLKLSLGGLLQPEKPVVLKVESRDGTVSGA

[4] = target: Voltage-gated inwardly rectifying potassium channel KCNH2 (Homo sapiens, UniProt Q12809); assay: Inhibition of human ERG by dofetilide binding assay
Sequence of Voltage-gated inwardly rectifying potassium channel KCNH2 (Q12809 whole entry): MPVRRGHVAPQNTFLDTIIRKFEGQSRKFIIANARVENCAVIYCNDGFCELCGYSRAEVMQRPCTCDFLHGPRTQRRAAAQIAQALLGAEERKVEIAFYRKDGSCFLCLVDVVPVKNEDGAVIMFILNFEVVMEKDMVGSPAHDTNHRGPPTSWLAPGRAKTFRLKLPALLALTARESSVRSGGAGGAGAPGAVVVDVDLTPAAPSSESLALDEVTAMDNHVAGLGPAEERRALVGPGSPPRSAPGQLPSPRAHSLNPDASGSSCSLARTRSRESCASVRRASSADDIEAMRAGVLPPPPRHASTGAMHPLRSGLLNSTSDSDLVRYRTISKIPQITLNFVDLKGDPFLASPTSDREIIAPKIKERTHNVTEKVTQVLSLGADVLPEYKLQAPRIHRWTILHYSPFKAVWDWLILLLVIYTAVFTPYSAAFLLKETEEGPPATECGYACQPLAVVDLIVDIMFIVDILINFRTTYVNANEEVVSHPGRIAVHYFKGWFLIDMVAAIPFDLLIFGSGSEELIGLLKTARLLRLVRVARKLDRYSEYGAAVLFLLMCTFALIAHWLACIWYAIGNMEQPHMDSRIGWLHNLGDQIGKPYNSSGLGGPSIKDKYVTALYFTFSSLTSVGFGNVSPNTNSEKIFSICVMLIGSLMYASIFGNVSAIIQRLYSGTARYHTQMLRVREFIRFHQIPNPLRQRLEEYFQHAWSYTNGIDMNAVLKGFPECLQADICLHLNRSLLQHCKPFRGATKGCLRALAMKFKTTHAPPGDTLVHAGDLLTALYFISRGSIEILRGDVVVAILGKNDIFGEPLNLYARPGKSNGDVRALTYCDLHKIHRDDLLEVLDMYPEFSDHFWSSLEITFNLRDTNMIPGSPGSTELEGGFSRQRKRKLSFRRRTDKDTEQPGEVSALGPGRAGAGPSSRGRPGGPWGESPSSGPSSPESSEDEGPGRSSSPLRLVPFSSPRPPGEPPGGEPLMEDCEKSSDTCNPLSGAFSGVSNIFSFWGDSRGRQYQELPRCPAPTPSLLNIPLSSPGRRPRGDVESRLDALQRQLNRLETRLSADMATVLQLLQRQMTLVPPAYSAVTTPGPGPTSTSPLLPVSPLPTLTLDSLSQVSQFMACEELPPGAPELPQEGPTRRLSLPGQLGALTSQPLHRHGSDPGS

Rattus norvegicus [5] = organism: Rattus norvegicus; assay: animal or person; settings: po, 5 h, read-out: INH
[6] = Permeability from apical side to basal side of human Caco2 cells; settings: Caco-2
[7] = Inhibition of Cytochrome P450; format: ADME
[8] = AUC in rat; format: ADME, organism-based; settings: plasma
[9] = Cmax in rat; format: ADME, organism-based; settings: in vivo
[10] = Clearance in rat at 1 mg/kg, iv; format: ADME, organism-based; set-up: dose 1 mg/kg, route intravenous; settings: in vivo
[11] = Oral bioavailability in rat; format: ADME, organism-based; settings: in vivo

| Compound | IC50 [1] [µM] | also measured |
| --- | --- | --- |
| CC#CCn1c(N2CCCNCC2)c(C#N)c2c1c(=O)n(Cc1nccc3ccccc13)c(=O)n2C | > 10 | inhibition in vivo at 3 mg/kg (Rattus norvegicus [2]): ≥ 70% |
| CC(C)=CCn1c(N2CCC[C@H](N)C2)c(C#N)c2ncn(Cc3nccc4ccccc34)c(=O)c21 | > 10 | inhibition in vivo at 3 mg/kg (Rattus norvegicus [5]): 60% |
| CC(C)=CCn1c(N2CCC[C@H](N)C2)c(C#N)c2ncn(Cc3ccnc4ccccc34)c(=O)c21 | > 10 | – |
| CC#CCn1c(N2CCC[C@H](N)C2)c(C#N)c2ncn(Cc3nccc4ccccc34)c(=O)c21 | > 10 | – |
| CC(C)=CCn1c(N2CCCNCC2)c(C#N)c2c1c(=O)n(Cc1nc(C)c3ccccc3n1)c(=O)n2C | > 10 | IC50 (Cytochrome P450 3A4): ≤ 3 µM |
| CC(C)=CCn1c(N2CCCNCC2)c(C#N)c2c1c(=O)n(Cc1c(C#N)cnc3ccccc13)c(=O)n2C | > 10 | IC50 (Cytochrome P450 3A4): ≤ 3 µM; IC50 [4]: 0.9 µM |
| CC#CCn1c(N2CCCNCC2)c(C#N)c2c1c(=O)n(Cc1c(C#N)cnc3ccccc13)c(=O)n2C | > 10 | IC50 (Cytochrome P450 3A4): ≥ 10 µM; IC50 [7]: > 10 µM |
| CC#CCn1c(N2CCCNCC2)c(C#N)c2ncn(Cc3nccc4ccccc34)c(=O)c21 | > 10 | – |
| CC(C)=CCn1c(N2CCCNCC2)c(C#N)c2c1c(=O)n(Cc1ncc3ccccc3c1C#N)c(=O)n2C | > 10 | IC50 (Cytochrome P450 3A4): ≤ 3 µM; IC50 [4]: 1.8 µM |
| Cn1cnc2c(C#N)c(N3CCC[C@H](N)C3)n(Cc3ccccc3)c2c1=O | > 10 | – |
| Cn1cnc2c(C#N)c(N3CCNCC3)n(Cc3ccccc3)c2c1=O | > 10 | – |
| CC#CCn1c(N2CCC[C@H](N)C2)c(C#N)c2ncn(Cc3ccnc4ccccc34)c(=O)c21 | > 10 | – |
| COc1cccc(C(=O)Cn2cnc3c(C#N)c(N4CCNCC4)n(CC=C(C)C)c3c2=O)c1 | > 10 | – |
| CC#CCn1c(N2CCC[C@H](N)C2)c(C#N)c2c1c(=O)n(CC(=O)c1cccc(OC)c1)c(=O)n2C | > 10 | – |
| CC#CCn1c(N2CCC[C@@H](N)C2)nc2c1c(=O)n(Cc1nc(C)c3ccccc3n1)c(=O)n2C [LINAGLIPTIN] | – | AUC [8]: 185 nM·h; Papp A→B [6]: 8 nm/s; Cmax [9]: 0.021 µM; clearance [10]: 2.04 L/h/kg; bioavailability [11]: 9% |
| CC(C)=CCn1c(N2CCCNCC2)c(C#N)c2c1c(=O)n(Cc1nccc3ccccc13)c(=O)n2C | > 10 | – |
| COc1cccc(C(=O)Cn2cnc3c(C#N)c(N4CCC[C@H](N)C4)n(CC=C(C)C)c3c2=O)c1 | > 10 | – |
| CC(C)=CCn1c(N2CCC[C@H](N)C2)c(C#N)c2c1c(=O)n(Cc1cnc3ccccc3n1)c(=O)n2C | > 10 | IC50 (Cytochrome P450 3A4): ≤ 3 µM |
| CC#CCn1c(N2CCCNCC2)c(C#N)c2c1c(=O)n(Cc1ncc3ccccc3c1C#N)c(=O)n2C | > 10 | IC50 [4]: 12 µM |
| COc1cccc(C(=O)Cn2cnc3c(C#N)c(N4CCC[C@@H](N)C4)n(CC=C(C)C)c3c2=O)c1 | > 10 | – |
| CC(C)=CCn1c(N2CCC[C@H](N)C2)c(C#N)c2c1c(=O)n(Cc1nc(C)c3ccccc3n1)c(=O)n2C | > 10 | IC50 (Cytochrome P450 3A4): ≤ 3 µM; IC50 [4]: 6.7 µM |
| CC#CCn1c(N2CCCNCC2)c(C#N)c2ncn(Cc3nc(C)c4ccccc4n3)c(=O)c21 | > 10 | Papp A→B [6]: 17 nm/s |
| COc1cccc(C(=O)Cn2c(=O)c3c(c(C#N)c(N4CCC[C@H](N)C4)n3Cc3ccccc3)n(C)c2=O)c1 | > 10 | – |
| CC(C)=CCn1c(N2CCC[C@H](N)C2)c(C#N)c2ncn(C)c(=O)c21 | > 10 | – |
| N#Cc1c(N2CCC[C@H](N)C2)n(Cc2ccccc2)c2c(=O)n(Cc3ccnc4ccccc34)cnc12 | > 10 | – |
| CC(C)=CCn1c(N2CCCNCC2)c(C#N)c2c1c(=O)n(Cc1cn3ccccc3n1)c(=O)n2C | > 10 | IC50 (Cytochrome P450 3A4): ≤ 3 µM |
| CC(C)=CCn1c(N2CCC[C@H](N)C2)c(C#N)c2ncn(Cc3nc(C)c4ccccc4n3)c(=O)c21 | > 10 | – |
| CC#CCn1c(N2CCC[C@H](N)C2)c(C#N)c2ncn(CC(=O)c3cccc(OC)c3)c(=O)c21 | > 10 | – |

The next lines start with results.

| IC50 [1] [µM] | Compound | also measured |
| --- | --- | --- |
| > 10 | CC#CCn1c(N2CCCNCC2)c(C#N)c2c1c(=O)n(Cc1nc(C)c3ccccc3n1)c(=O)n2C | – |
| > 10 | CC(C)=CCn1c(N2CCC[C@H](N)C2)c(C#N)c2ncn(Cc3ncc4ccccc4n3)c(=O)c21 | CLint scaled [3]: 4.02 L/h/kg |
| > 10 | COc1cccc(C(=O)Cn2c(=O)c3c(c(C#N)c(N4CCCNCC4)n3CC=C(C)C)n(C)c2=O)c1 | IC50 (Cytochrome P450 3A4): ≤ 3 µM; IC50 [4]: 1.1 µM |
| > 10 | CC(C)=CCn1c(N2CCC[C@H](N)C2)c(C#N)c2c1c(=O)n(Cc1ncccc1C#N)c(=O)n2C | IC50 (Cytochrome P450 3A4): ≤ 3 µM; IC50 [4]: 16.9 µM |
| > 10 | Cn1c(=O)c2c(c(C#N)c(N3CCC[C@H](N)C3)n2Cc2ccccc2)n(C)c1=O | – |
| > 10 | COc1cccc(C(=O)Cn2c(=O)c3c(c(C#N)c(N4CCC[C@H](N)C4)n3CC=C(C)C)n(C)c2=O)c1 | IC50 (Cytochrome P450 3A4): ≤ 3 µM; IC50 [4]: 1.6 µM |
| > 10 | N#Cc1c(N2CCCNCC2)n(Cc2ccccc2)c2c(=O)n(Cc3nccc4ccccc34)cnc12 | – |
| > 10 | COc1cccc(C(=O)Cn2cnc3c(C#N)c(N4CCC[C@@H](N)C4)n(Cc4ccccc4)c3c2=O)c1 | – |
| > 10 | CC(C)=CCn1c(N2CCCNCC2)c(C#N)c2ncn(Cc3nccc4ccccc34)c(=O)c21 | – |
| > 10 | CC(C)=CCn1c(N2CCC[C@H](N)C2)c(C#N)c2c1c(=O)n(Cc1nccc3ccccc13)c(=O)n2C | – |
| > 10 | CC#CCn1c(N2CCC[C@H](N)C2)c(C#N)c2c1c(=O)n(Cc1nc(C)c3ccccc3n1)c(=O)n2C | IC50 [4]: > 30 µM |
| > 10 | COc1cccc(C(=O)Cn2cnc3c(C#N)c(N4CCC[C@H](N)C4)n(Cc4ccccc4)c3c2=O)c1 | – |
| > 10 | CC#CCn1c(N2CCC[C@@H](N)C2)c(C#N)c2ncn(CC(=O)c3cccc(OC)c3)c(=O)c21 | – |
| > 10 | Cn1c(=O)n(Cc2nccc3ccccc23)c(=O)c2c1c(C#N)c(N1CCC[C@H](N)C1)n2Cc1ccccc1 | IC50 (Cytochrome P450 3A4): ≤ 3 µM; IC50 [4]: 2.8 µM |
| > 10 | CC#CCn1c(N2CCC[C@H](N)C2)c(C#N)c2c1c(=O)n(Cc1nccc3ccccc13)c(=O)n2C | IC50 [4]: 28.2 µM |
| > 10 | CC#CCn1c(N2CCNCC2)c(C#N)c2ncn(CC(=O)c3cccc(OC)c3)c(=O)c21 | – |
| > 10 | COc1cccc(C(=O)Cn2cnc3c(C#N)c(N4CCNCC4)n(Cc4ccccc4)c3c2=O)c1 | – |
| > 10 | CC#CCn1c(N2CCC[C@@H](N)C2)c(C#N)c2c1c(=O)n(Cc1nc(C)c3ccccc3n1)c(=O)n2C | IC50 [4]: 21.7 µM |
| > 10 | CC#CCn1c(N2CCCNCC2)c(C#N)c2ncn(Cc3ncc4ccccc4n3)c(=O)c21 | Papp A→B [6]: 6 nm/s |
